# In patent US7214669B2, “Tetracycline derivatives and methods of use thereof” (Tetragenex Pharmaceuticals, Inc., priority 2001, dated 2007):
# Several values for one entry are separate records, joined by “and”; a condition that tells them apart may be missing. Equal values may be shown once. Where a name gives a salt, the structure may show the parent alone.
# Columns and labels:
# Human recombinant MMP1 = biological target: T1, Human recombinant MMP1 (Homo sapiens, UniProt P03956); assay: MMP1 (Collagenase-1) inhibition, 14C collagen release; format: biochemical; details: 35° C., 5 hours; read-out: MMP-1 inhibitory activity, IC50
# T1 sequence (P03956 100-469): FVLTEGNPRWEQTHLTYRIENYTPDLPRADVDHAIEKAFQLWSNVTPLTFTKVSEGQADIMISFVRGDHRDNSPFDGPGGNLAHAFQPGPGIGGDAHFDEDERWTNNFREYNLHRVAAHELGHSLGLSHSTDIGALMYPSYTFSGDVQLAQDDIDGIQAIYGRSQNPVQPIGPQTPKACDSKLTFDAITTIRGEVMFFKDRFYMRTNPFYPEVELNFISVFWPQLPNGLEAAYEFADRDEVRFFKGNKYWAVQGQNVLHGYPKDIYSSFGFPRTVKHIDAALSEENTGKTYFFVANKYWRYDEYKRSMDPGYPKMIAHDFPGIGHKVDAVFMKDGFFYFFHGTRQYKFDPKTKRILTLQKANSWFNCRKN
# MMP2 (Gelatinase A) = biological target: T2, MMP2 (Gelatinase A) (Homo sapiens, UniProt P08253); assay: MMP2 (Gelatinase A) inhibition, 14C gelatin release; format: biochemical; details: 37° C., 16 hours; read-out: MMP-2 inhibitory activity, IC50
# T2 sequence (P08253 110-660): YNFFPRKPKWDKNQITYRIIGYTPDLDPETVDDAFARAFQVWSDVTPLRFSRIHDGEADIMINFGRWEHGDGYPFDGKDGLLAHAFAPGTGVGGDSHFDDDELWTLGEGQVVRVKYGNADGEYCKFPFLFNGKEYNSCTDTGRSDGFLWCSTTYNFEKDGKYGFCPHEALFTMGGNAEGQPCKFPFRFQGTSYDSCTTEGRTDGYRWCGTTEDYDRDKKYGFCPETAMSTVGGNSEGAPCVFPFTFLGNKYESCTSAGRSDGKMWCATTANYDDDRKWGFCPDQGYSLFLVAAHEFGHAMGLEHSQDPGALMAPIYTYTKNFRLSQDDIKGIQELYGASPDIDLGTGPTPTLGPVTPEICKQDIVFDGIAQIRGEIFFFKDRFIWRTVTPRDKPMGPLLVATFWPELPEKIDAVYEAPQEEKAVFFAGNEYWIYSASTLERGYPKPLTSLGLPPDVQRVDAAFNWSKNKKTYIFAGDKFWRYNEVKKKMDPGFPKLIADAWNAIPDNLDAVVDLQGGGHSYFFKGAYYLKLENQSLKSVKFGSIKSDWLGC
# Human recombinant MMP3 = Human recombinant MMP3 (Homo sapiens, UniProt P08254); assay: MMP3 (Stromelysin 1) inhibition, 14C casein release; format: biochemical; details: 37° C., 16 hours; read-out: MMP-3 inhibitory activity, IC50
# Human recombinant MMP9 = Human recombinant MMP9 (Homo sapiens, UniProt P14780); assay: MMP9 (Gelatinase B) inhibition, 14C gelatin release; format: biochemical; details: 37° C., 16 hours; read-out: MMP-9 inhibitory activity, IC50
# Human recombinant MMP14 = Human recombinant MMP14 (Homo sapiens, UniProt P50281); assay: MMP14 (MTI-MMP) inhibition, 14C collagen release; format: biochemical; details: 35° C., 15 hours; read-out: MMP-14 inhibitory activity, IC50
# [1] = system: C8161 human melanoma cells; assay: Membrane Invasion Culture System (MICS) chemo-invasion assay; format: cell-based; details: 24 hours, + = increased invasiveness
# Source text: (§1) Another objective was to analyze the effects of specific, tetracycline derived compounds on the in-vitro chemo-invasive potential of: • C8161 human melanoma cells • MDA-MB-231 human breast cancer cells • PC3 human prostate cancer cells • RPM18226 human myeloma cancer cells • Ark human myeloma cancer cells • Arp-1 human myeloma cancer cells
# (§2) The Membrane Invasion Culture System (MICS) in vitro chemo-invasion assay was chosen to measure changes in the invasive potential of specific human cancer cells in response to tetracycline derived compounds. Stock solutions of each compound were hydrated in water containing 2% DMSO and pH 10.0. Upon solubilization, HCl was added to the solution to establish a pH of 7.5–8.0. This solution was then wrapped in foil and kept at 4° C. during the 24 hours of assay. Fresh compound was prepared for each assay. The in vitro chemoinvasion analyses for tumor cell invasiveness are performed using the Membrane Invasion Culture System (MICS) as previously described.
# (§3) The MICS system is a thermally treated plastic manifold system consisting of two matched sets of plates containing fourteen wells, 13 mm in diameter. Interposed between these plates was a polycarbonate filter containing 10 μm pores and coated with a defined matrix composed of human laminin/collagen IV/gelatin that formed a 35 μm thick barrier between the top and bottom sections of the wells in MICS. Prior to placing this barrier in place, the lower wells were filled with serum-free RPMI culture medium made 50% in conditioned medium obtained from 2-day-old cultures of human fibroblasts which had been cleared of cells and cellular debris by either centrifugation, or filtering through a 0.45 μm sterile filter. The barrier was then placed on the lower wells and fresh serum-free medium added to the upper wells after assembly of the system. Fifty thousand tumor cells were then added to the wells either in the presence of the compound, or the DMSO vehicle (the controls). Of the 12 assay wells on each manifold, 3 randomized wells acted as controls, 3 wells received 1 μg/ml of compound, 3 received 10 μg/ml and 3 received 25 μg/ml. After 24 hours, cells and media were removed from the lower wells and replaced by phosphate buffered saline plus 2 mM EDTA. This solution was used to remove all cells from the lower well, and this wash was added to the recovered cells plus medium from the same well. These samples were then collected onto a polylysine containing polycarbonate membrane containing 3 μm pores using a Dot-Blot manifold system. These collection filters were then fixed in methanol, and stained using Wright's stain (Leukostat staining kit) in situ. The filters were then mounted on microscope slides with microscope immersion oil (which reduced the light refraction from the pores) and 5 microscopic fields were counted to calculate the number of cells which invaded through the membrane over the 24 hour period. These numbers were then statistically analyzed as discussed below.
# [2] = system: MDA-MB-231 human breast cancer cells; assay: as above; format: cell-based; details: 24 hours, + = increased invasiveness
# Source text: as §1, §2, §3
# [3] = system: PC-3 ML human prostate cancer cells; assay: as above; format: cell-based; details: 24 hours, + = increased invasiveness
# Source text: as §1, §2, §3
# [4] = system: RPMI-8226 human myeloma cancer cells; assay: as above; format: cell-based; details: 24 hours, + = increased invasiveness
# Source text: as §1, §2, §3
# Human recombinant MMP3, sequence (P08254 100-477): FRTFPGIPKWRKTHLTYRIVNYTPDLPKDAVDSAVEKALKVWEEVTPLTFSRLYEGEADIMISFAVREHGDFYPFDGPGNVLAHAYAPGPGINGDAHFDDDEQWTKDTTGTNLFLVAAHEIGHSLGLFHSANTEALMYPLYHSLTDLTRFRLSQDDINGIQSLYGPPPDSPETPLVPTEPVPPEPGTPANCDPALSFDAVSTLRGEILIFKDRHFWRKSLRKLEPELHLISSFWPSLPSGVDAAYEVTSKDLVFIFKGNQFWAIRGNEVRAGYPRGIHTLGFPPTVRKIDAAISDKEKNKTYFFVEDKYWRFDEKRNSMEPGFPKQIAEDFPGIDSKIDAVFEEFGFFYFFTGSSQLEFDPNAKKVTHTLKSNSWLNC
# Human recombinant MMP9, sequence (P14780 94-707): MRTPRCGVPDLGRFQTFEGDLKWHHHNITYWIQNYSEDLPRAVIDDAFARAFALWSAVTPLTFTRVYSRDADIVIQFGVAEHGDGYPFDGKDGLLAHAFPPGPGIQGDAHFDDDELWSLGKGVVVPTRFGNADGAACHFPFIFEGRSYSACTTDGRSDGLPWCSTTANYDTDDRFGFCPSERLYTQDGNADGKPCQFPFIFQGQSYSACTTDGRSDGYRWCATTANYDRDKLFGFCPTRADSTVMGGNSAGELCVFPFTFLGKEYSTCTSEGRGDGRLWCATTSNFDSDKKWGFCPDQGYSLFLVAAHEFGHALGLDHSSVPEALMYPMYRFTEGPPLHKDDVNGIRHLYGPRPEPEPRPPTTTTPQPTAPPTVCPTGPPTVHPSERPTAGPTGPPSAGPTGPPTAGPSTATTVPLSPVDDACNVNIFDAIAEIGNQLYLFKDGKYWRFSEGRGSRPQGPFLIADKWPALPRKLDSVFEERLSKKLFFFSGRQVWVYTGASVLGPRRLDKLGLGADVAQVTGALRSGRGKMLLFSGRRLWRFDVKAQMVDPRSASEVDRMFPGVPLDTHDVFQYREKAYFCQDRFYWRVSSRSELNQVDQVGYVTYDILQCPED
SMILES,IC50 (Human recombinant MMP1),IC50 (MMP2 (Gelatinase A)),IC50 (Human recombinant MMP3),IC50 (Human recombinant MMP9),IC50 (Human recombinant MMP14),"percent inhibition, C8161 (Melanoma) ([1]; 1 ug/mL)","percent inhibition, C8161 (Melanoma) ([1]; 10 ug/mL)","percent inhibition, C8161 (Melanoma) ([1]; 25 ug/mL)","percent inhibition, MDA-MB-231 (Breast) ([2]; 1 ug/mL)","percent inhibition, MDA-MB-231 (Breast) ([2]; 10 ug/mL)","percent inhibition, MDA-MB-231 (Breast) ([2]; 25 ug/mL)",further results
"CCCN(CCC)c1ccc(O)c2c1C(C)C1C(=C(O)C3(O)C(=O)C(C(N)=O)=C(O)C(N(C)C)C3C1O)C2=O (stereo not shown) [Compound 24, 7-Di-n-propylamino-6-deoxy-5-hydroxytetracycline H2SO4]",405 µM,724 µM,191 µM,127 µM,160 µM,–,–,–,–,–,–,–
"CC(=O)Nc1ccc(O)c2c1C(C)C1C(=C(O)C3(O)C(=O)C(C(N)=O)=C(O)C(N(C)C)C3C1O)C2=O (stereo not shown) [Compound 23, 7-Acetamido-6-deoxy-5-hydroxytetracycline H2SO4]",> 1000 µM,306 µM,> 1000 µM,> 1000 µM,> 1000 µM,–,–,–,–,–,–,–
"CC1c2ccc(N)c(O)c2C(=O)C2=C(O)C3(O)C(=O)C(C(N)=O)=C(O)CC3C(O)C21 (stereo not shown) [Compound 36, 9-animo-4-dedimethylamino-6-deoxy-5-hydroxytetracycline sulfate]",539 µM,> 1000 µM,283 µM,> 1000 µM,608 µM,–,–,–,–,–,–,–
"CC1c2ccc(-c3ccc(F)cc3)c(O)c2C(=O)C2=C(O)C3(O)C(=O)C(C(N)=O)=C(O)C(N(C)C)C3C(O)C21 (stereo not shown) [Compound 51, 9-(4-fluorophenyl)-6-deoxy-5-hydroxytetracycline]",–,–,–,–,–,+9%,+31^B percent,+122^B percent,+15^B percent,+18%,25^B percent,"percent inhibition, PC-3 ML (Prostrate) ([3]; 1 ug/mL): +4%; percent inhibition, PC-3 ML (Prostrate) ([3]; 10 ug/mL): +13%; percent inhibition, PC-3 ML (Prostrate) ([3]; 25 ug/mL): 4%; percent inhibition, RPMI-8226 (Multiple Myeloma) ([4]; 1 ug/mL): 14%; percent inhibition, RPMI-8226 (Multiple Myeloma) ([4]; 10 ug/mL): +26^B percent; percent inhibition, RPMI-8226 (Multiple Myeloma) ([4]; 25 ug/mL): +2%"
"CC1c2c(N)cc([N+](=O)[O-])c(O)c2C(=O)C2=C(O)C3(O)C(=O)C(C(N)=O)=C(O)C(N(C)C)C3C(O)C21 (stereo not shown) [Compound 14, 7-Amino-6-deoxy-5-hydroxy-9-nitrotetracycline H2SO4]",279 µM,–,> 1000 µM,–,386 µM,–,–,–,–,–,–,–
"CN(C)[C@@H]1C(=O)C(C(N)=O)=C(O)[C@@]2(O)C(=O)C3=C(O)c4c(O)cccc4C[C@H]3C[C@@H]12.Cl [Compound 53, 6-Demethyl-6-deoxytetracycline HCl]",–,–,–,–,–,+40^B percent,+158^B percent,83^B percent,9%,49^B percent,83^B percent,"percent inhibition, PC-3 ML (Prostrate) ([3]; 1 ug/mL): 29^B percent; percent inhibition, PC-3 ML (Prostrate) ([3]; 10 ug/mL): 21%; percent inhibition, PC-3 ML (Prostrate) ([3]; 25 ug/mL): 45^B percent; percent inhibition, RPMI-8226 (Multiple Myeloma) ([4]; 1 ug/mL): +95^B percent; percent inhibition, RPMI-8226 (Multiple Myeloma) ([4]; 10 ug/mL): 18%; percent inhibition, RPMI-8226 (Multiple Myeloma) ([4]; 25 ug/mL): 84^B percent"
"CN(C)C1C(O)=C(C(N)=O)C(=O)C2(O)C(O)=C3C(=O)c4c(O)ccc(Cl)c4C(C)(O)C3CC12 (stereo not drawn) [Compound 52, 4-Epi-7-Chlorotetracycline hydrochloride]",–,–,–,–,–,5%,15%,30%,5%,12%,52^B percent,"percent inhibition, PC-3 ML (Prostrate) ([3]; 1 ug/mL, hydrochloride): 52^B percent and 31^B percent; percent inhibition, PC-3 ML (Prostrate) ([3]; 10 ug/mL, hydrochloride): 68^B percent and 48^B percent; percent inhibition, PC-3 ML (Prostrate) ([3]; 25 ug/mL, hydrochloride): 70^B percent and 63^B percent; percent inhibition, RPMI-8226 (Multiple Myeloma) ([4]; 10 ug/mL, hydrochloride): 26^B percent and 33^B percent; percent inhibition, RPMI-8226 (Multiple Myeloma) ([4]; 25 ug/mL, hydrochloride): 68^B percent and 46^B percent"

# The next lines start with results.
IC50 (Human recombinant MMP1),IC50 (MMP2 (Gelatinase A)),IC50 (Human recombinant MMP3),IC50 (Human recombinant MMP9),IC50 (Human recombinant MMP14),SMILES,"percent inhibition, C8161 (Melanoma) ([1]; 1 ug/mL)","percent inhibition, C8161 (Melanoma) ([1]; 10 ug/mL)","percent inhibition, C8161 (Melanoma) ([1]; 25 ug/mL)","percent inhibition, MDA-MB-231 (Breast) ([2]; 1 ug/mL)","percent inhibition, MDA-MB-231 (Breast) ([2]; 10 ug/mL)","percent inhibition, MDA-MB-231 (Breast) ([2]; 25 ug/mL)",further results
1440 µM,1470 µM,224 µM,591 µM,–,"CC1c2c(N)cc(C(C)(C)C)c(O)c2C(=O)C2=C(O)C3(O)C(=O)C(C(N)=O)=C(O)C(N(C)C)C3C(O)C21 (stereo not shown) [Compound 44, 7-Amino-9-tertbutyl-6-deoxy-5-hydroxytetracycline H2SO4]",–,–,–,–,–,–,–
384 µM,2450 µM,194 µM,6630 µM,–,"CC1c2c(N=[N+]=[N-])cc(C(C)(C)C)c(O)c2C(=O)C2=C(O)C3(O)C(=O)C(C(N)=O)=C(O)C(N(C)C)C3C(O)C21 (stereo not shown) [Compound 45, 7-Azido-9-tertbutyl-6-deoxy-5-hydroxytetracycline H2SO4]",–,–,–,–,–,–,–
–,606 µM,1560 µM,405 µM,428 µM,"CC(=O)Nc1cc(N=[N+]=[N-])c(O)c2c1C(C)C1C(=C(O)C3(O)C(=O)C(C(N)=O)=C(O)C(N(C)C)C3C1O)C2=O (stereo not shown) [Compound 42, 7-Acetylamino-9-azido-6-deoxy-5-hydroxy-tetracycline]",–,–,–,–,–,–,–
560 µM,362 µM,91 µM,–,29 µM,"CC1c2c([N+](=O)[O-])cc(C(C)(C)C)c(O)c2C(=O)C2=C(O)C3(O)C(=O)C(C(N)=O)=C(O)CC3C(O)C21 (stereo not shown) [Compound 40, 7-Nitro-9-tertbutyl-4-dedimethylamino-6-deoxy-5-hydroxy-tetracycline H2SO4]",+1%,+5%,+4%,9%,15%,20^B percent,"percent inhibition, PC-3 ML (Prostrate) ([3]; 1 ug/mL): +1%; percent inhibition, PC-3 ML (Prostrate) ([3]; 10 ug/mL): +7%; percent inhibition, PC-3 ML (Prostrate) ([3]; 25 ug/mL): +4%; percent inhibition, RPMI-8226 (Multiple Myeloma) ([4]; 1 ug/mL): 16%; percent inhibition, RPMI-8226 (Multiple Myeloma) ([4]; 10 ug/mL): 11%; percent inhibition, RPMI-8226 (Multiple Myeloma) ([4]; 25 ug/mL): 9%"
600 µM,2480 µM,174 µM,319 µM,–,"CC1c2c([N+]#N)cc(C(C)(C)C)c(O)c2C(=O)C2=C(O)C3(O)C(=O)C(C(N)=O)=C(O)C(N(C)C)C3C(O)C21 (stereo not shown) [Compound 43, 9-tertbutyl-6-deoxy-5-hydroxytetracycline-7-diazonium H2SO4]",–,–,–,–,–,–,–
